Source: ChEMBL document CHEMBL4480451, “Novel nonapeptide GLP (28-36) amide derivatives with improved hypoglycemic and body weight lowering effects” (2019)
Calls of active or inactive are those of the source. No cut-off for these calls is given here.

Assays:
Mus musculus [1] = test: Hypoglycemic activity in ICR mouse assessed as plasma glucose level at 1 umol/kg, ip pretreated 30 mins prior to glucose challenge and measured at 15 mins post challenge by intraperitoneal glucose tolerance test (reference value: 15.3 +/- 1.2 mmol/L); type: functional
Mus musculus [2] = test: Hypoglycemic activity in ICR mouse assessed as reduction in plasma glucose AUC (0 to 120 mins) at 1 umol/kg, ip pretreated 30 mins prior to glucose challenge […] by intraperitoneal glucose tolerance test; type: functional, organism-based
INS1 [3] = test: Cytoprotective activity against H2O2-induced oxidative stress-mediated cell death in rat INS-1 cells assessed as reduction in cell viability at 10 uM after 24 hrs by MTT assay (reference value: 37%); type: functional
INS1 [4] = test: Cytoprotective activity against STZ-mediated cell death in rat INS-1 cells assessed as reduction in cell viability at 1 uM after 24 hrs by MTT assay (reference value: 50%); type: functional
INS1 [5] = test: Cytoprotective activity against STZ-mediated cell death in rat INS-1 cells assessed as reduction in cell viability at 10 uM after 24 hrs by MTT assay (reference value: 50%); type: functional
INS1 [6] = test: Cytoprotective activity against glucolipotoxicity-mediated cell death in rat INS-1 cells assessed as reduction in cell viability at 10 uM after 24 hrs by MTT assay (reference value: 31%); type: functional
INS1 [7] = test: Cytoprotective activity against H2O2-induced oxidative stress-mediated cell death in rat INS-1 cells assessed as reduction in apoptotic cells at 0.1 to 10 uM after 24 hrs by Annexin V/propidium iodide staining-based flow cytometric analysis; type: functional
INS1 [8] = test: Cytoprotective activity against STZ-mediated cell death in rat INS-1 cells assessed as reduction in apoptotic cells at 0.1 to 10 uM after 24 hrs by Annexin V/propidium iodide staining-based flow cytometric analysis; type: functional
INS1 [9] = test: Cytoprotective activity against glucolipotoxicity-mediated cell death in rat INS-1 cells assessed as reduction in apoptotic cells at 0.1 to 10 uM after 24 hrs by Annexin V/propidium iodide staining-based flow cytometric analysis; type: functional
Mus musculus [10] = test: Antidiabetic activity in STZ-induced diabetic ICR mouse model assessed as fasting blood glucose level at 0.1 umol/kg, ip for 5 consecutive days by glucometery (reference value: 17.7 +/- 1.1 mM); type: functional
Mus musculus [11] = test: Antidiabetic activity in STZ-induced diabetic ICR mouse model assessed as fasting blood glucose level at 1 umol/kg, ip for 5 consecutive days by glucometery (reference value: 17.7 +/- 1.1 mM); type: functional
Mus musculus [12] = test: Antidiabetic activity in STZ-induced diabetic ICR mouse model assessed as fasting blood glucose level at 10 umol/kg, ip for 5 consecutive days by glucometery (reference value: 17.7 +/- 1.1 mM); type: functional
Mus musculus [13] = test: Antiobesity activity in C57BL/6J mouse model of diet-induced obesity assessed as reduction in cumulative food intake at 1 umol/kg, ip qd for 4 weeks relative to control; type: functional; parameters: scale not given: the % may be the effect or the level left
Mus musculus [14] = test: Antiobesity activity in C57BL/6J mouse model of diet-induced obesity assessed as reduction in body weight at 1 umol/kg, ip qd for 4 weeks; type: functional, organism-based
Mus musculus [15] = test: Antiobesity activity in C57BL/6J mouse model of diet-induced obesity assessed as increase in small brown adipocytes at 1 umol/kg, ip qd for 4 weeks by haematoxylin and eosin staining-based assay; type: functional, organism-based
Mus musculus [16] = test: Antiobesity activity in C57BL/6J mouse model of diet-induced obesity assessed as reduction in circulating leptin level at 1 umol/kg, ip qd for 4 weeks; type: functional, organism-based
Mus musculus [17] = test: Antiobesity activity in C57BL/6J mouse model of diet-induced obesity assessed as reduction in ALT levels at 1 umol/kg, ip qd for 4 weeks; type: functional, organism-based
Mus musculus [18] = test: Antiobesity activity in C57BL/6J mouse model of diet-induced obesity assessed as reduction in AST levels at 1 umol/kg, ip qd for 4 weeks; type: functional, organism-based
Mus musculus [19] = test: Antiobesity activity in C57BL/6J mouse model of diet-induced obesity assessed as reduction in serum total cholesterol levels at 1 umol/kg, ip qd for 4 weeks; type: functional, organism-based
Mus musculus [20] = test: Antiobesity activity in C57BL/6J mouse model of diet-induced obesity assessed as reduction in triglyceride levels at 1 umol/kg, ip qd for 4 weeks; type: functional, organism-based
Mus musculus [21] = test: Antiobesity activity in C57BL/6J mouse model of diet-induced obesity assessed as reduction in LDL/HDL levels at 1 umol/kg, ip qd for 4 weeks; type: functional, organism-based
Mus musculus [22] = test: Antidiabetic activity in STZ-induced diabetic ICR mouse model assessed as reduction in HbA1c level at 0.1 to 10 umol/kg, ip for 5 consecutive days; type: functional, organism-based
Mus musculus [23] = test: Antiobesity activity in C57BL/6J mouse model of diet-induced obesity assessed as reduction in circulating adiponectin level at 1 umol/kg, ip qd for 4 weeks; type: functional, organism-based

With H-FIAWLVKGRKKKKKK-NH2 the Activity (Mus musculus [1]) was 11.9 mmol/L and the Activity (Mus musculus [2]) was “Active”.
In the case of H-FIAWLVKGRKKK-NH2, the Activity (Mus musculus [1]) is reported as 10.8 mmol/L, the Activity (Mus musculus [2]) is reported as “Active” and the Activity (INS1 [3]) is reported as 17%. The Activity (INS1 [4]) was 36%, the Activity (INS1 [5]) was 29% and the Activity (INS1 [6]) was 21%. For the same substance, the Activity (INS1 [7]) was “Active”, the Activity (INS1 [8]) was “Active” and the Activity (INS1 [9]) was “Active”. It also gave an Activity (Mus musculus [10]) of 16.5 mM, an Activity (Mus musculus [11]) of 14.9 mM and an Activity (Mus musculus [12]) of 15.03 mM. The Activity (Mus musculus [13]) was 12.7%, the Activity (Mus musculus [14]) was “Active” and the Activity (Mus musculus [15]) was “Active”. For the same substance, the Activity (Mus musculus [16]) was “inactive”, the Activity (Mus musculus [17]) was “Active” and the Activity (Mus musculus [18]) was “Active”. The Activity (Mus musculus [19]) was “Active”, the Activity (Mus musculus [20]) was “Active” and the Activity (Mus musculus [21]) was “inactive”. The Activity (Mus musculus [22]) was “inactive” and the Activity (Mus musculus [23]) was “inactive”.
